Results as given in ChEMBL document CHEMBL5608180, “DNA G-quadruplexes in the genome of Trypanosoma cruzi as potential therapeutic targets for Chagas disease: Dithienylethene ligands as effective antiparasitic agents” (Eur J Med Chem, 2024).

Tests used:
[1] = Selectivity index, ratio of IC50 for cytotoxicity against human MRC5 cells to IC50 for antiparasitic activity against epimastigote form of Trypanosoma cruzi DA (TcI); format: toxicity, cell-based; settings: read-out: Ratio IC50
[2] = Cytotoxicity against human MRC5 cells; format: toxicity, cell-based
[3] = Selectivity index, ratio of IC50 for cytotoxicity against human MRC5 cells to IC50 for antiparasitic activity against epimastigote form of Trypanosoma cruzi SOL (TcV); format: toxicity, cell-based; settings: read-out: Ratio IC50
Trypanosoma cruzi [4] = assay: Antiparasitic activity against epimastigote form of Trypanosoma cruzi DA (TcI) assessed as inhibition of parasite growth incubated for 96 hrs followed by incubation with resazurin for 4 to 6 hrs by resazurin dye based fluorescence analysis; format: functional, organism-based
[5] = Selectivity index, ratio of IC50 for cytotoxicity against human MRC5 cells to IC50 for antiparasitic activity against epimastigote form of Trypanosoma cruzi BM Lopez (TcIa); format: toxicity, cell-based; settings: read-out: Ratio IC50
[6] = Selectivity index, ratio of IC50 for cytotoxicity against human MRC5 cells to IC50 for antiparasitic activity against epimastigote form of Trypanosoma cruzi Y (TcII); format: toxicity, cell-based; settings: read-out: Ratio IC50
Trypanosoma cruzi [7] = assay: Antiparasitic activity against epimastigote form of Trypanosoma cruzi BM Lopez (TcIa) assessed as inhibition of parasite growth incubated for 96 hrs followed by incubation with resazurin for 4 to 6 hrs by resazurin dye based fluorescence analysis; format: functional, organism-based
Trypanosoma cruzi [8] = assay: Antiparasitic activity against epimastigote form of Trypanosoma cruzi Y(TcII) assessed as inhibition of parasite growth incubated for 96 hrs followed by incubation with resazurin for 4 to 6 hrs by resazurin dye based fluorescence analysis; format: functional, organism-based
Trypanosoma cruzi [9] = assay: Antiparasitic activity against epimastigote form of Trypanosoma cruzi SOL(TcV) assessed as inhibition of parasite growth incubated for 96 hrs followed by incubation in dark with resazurin for 4 to 6 hrs by resazurin dye based fluorescence analysis; format: functional, organism-based
Trypanosoma cruzi [10] = assay: Antiparasitic activity against trypomastigote form of Trypanosoma cruzi SOL (MHOM/ES/2008/SOL; DTU V) assessed as inhibition of parasite growth incubated for 96 hrs followed by incubation in dark with resazurin for 4 to 6 hrs by resazurin dye based fluorescence analysis; format: functional, organism-based
[11] = Selectivity index, ratio of IC50 for cytotoxicity against human MRC5 cells to IC50 for antiparasitic activity against trypomastigote form of Trypanosoma cruzi SOL (TcV); format: toxicity, cell-based; settings: read-out: Ratio IC50

Compound	selectivity ratio [1]	IC50 [2]	selectivity ratio [3]	IC50 (Trypanosoma cruzi [4])	selectivity ratio [5]	selectivity ratio [6]	IC50 (Trypanosoma cruzi [7])	IC50 (Trypanosoma cruzi [8])	IC50 (Trypanosoma cruzi [9])	IC50 (Trypanosoma cruzi [10])	selectivity ratio [11]
Cc1sc(-c2ccc(N3CCNCC3)cc2)cc1C1=C(c2cc(-c3ccc(N4CCNCC4)cc3)sc2C)CCC1	< 1	8 µM	< 1	13.9 µM	< 1	< 1	29.8 µM	29.5 µM	30.8 µM		
Cc1sc(-c2cccc3c2ccc[n+]3C)cc1C1=C(c2cc(-c3cccc4c3ccc[n+]4C)sc2C)CCC1	1.4	20.5 µM	1	14.4 µM	< 1	< 1	22.7 µM	22.8 µM	20.4 µM		
C[C@]12SC(c3ccc(-c4ccncc4)cc3)=CC1=C1CCCC1=C1C=C(c3ccc(-c4ccncc4)cc3)S[C@@]12C	< 1	4.9 µM	< 1	36.6 µM	< 1	< 1	60.1 µM	42.8 µM	> 50 µM		
C[C@]12SC(c3ccc(N4CCNCC4)cc3)=CC1=C1CCCC1=C1C=C(c3ccc(N4CCNCC4)cc3)S[C@@]12C	< 1	4.3 µM	< 1	32 µM	< 1	< 1	> 50 µM	> 50 µM	> 50 µM		
Cc1sc(-c2ccc(CC[N+](C)(C)C)cc2)cc1C1=C(c2cc(-c3ccc(CC[N+](C)(C)C)cc3)sc2C)CCC1	< 1	2.7 µM	< 1	6.8 µM	< 1	< 1	19.1 µM	14.2 µM	21.2 µM		
C[C@]12SC(c3ccc(CN4CCCC4)cc3)=CC1=C1CCCC1=C1C=C(c3ccc(CN4CCCC4)cc3)S[C@@]12C	< 1	22.5 µM	< 1	40.1 µM	< 1	< 1	> 50 µM	> 34 µM	> 50 µM		
Cc1sc(-c2ccc(CCN(C)C)cc2)cc1C1=C(c2cc(-c3ccc(CCN(C)C)cc3)sc2C)CCC1	< 1	2.6 µM	< 1	2.7 µM	< 1	< 1	4 µM	3.6 µM	3.8 µM		
Cc1sc(-c2ccc(CN3CCCC3)cc2)cc1C1=C(c2cc(-c3ccc(CN4CCCC4)cc3)sc2C)CCC1	1.2	7.2 µM	< 1	6.1 µM	1.6	1.1	4.6 µM	6.6 µM	9.75 µM		
CN(C)c1ccc(Nc2c3ccc(NC(=O)CCN4CCCC4)cc3nc3cc(NC(=O)CCN4CCCC4)ccc23)cc1	< 1		< 1	47.5 µM	< 1	< 1	49.4 µM	> 100 µM	> 100 µM		
C[C@]12SC(c3ccncc3)=CC1=C1CCCC1=C1C=C(c3ccncc3)S[C@@]12C	< 1	3.3 µM	< 1	30.2 µM	< 1	< 1	> 25.6 µM	13.9 µM	> 18.3 µM		
NCCOc1cc(C(=O)Nc2cc(OCCN)c3ccccc3n2)nc(C(=O)Nc2cc(OCCN)c3ccccc3n2)c1 [PYRIDOSTATIN]	< 1		< 1	> 100 µM	< 1	< 1	> 100 µM	> 100 µM	> 100 µM		
Cc1sc(-c2cc[n+](C)cc2)cc1C1=C(c2cc(-c3cc[n+](C)cc3)sc2C)CCC1	< 1	2.4 µM	< 1	> 28.2 µM	< 1	< 1	> 28.6 µM	23.1 µM	> 27.4 µM		
O=C(Cn1ccnc1[N+](=O)[O-])NCc1ccccc1 [BENZNIDAZOLE]		47.2 µM	4.2		7.5	2.3	6.3 µM	20.3 µM	11.2 µM	57.1 µM	< 1
Cc1sc(-c2ccc(-c3cc[n+](C)cc3)cc2)cc1C1=C(c2cc(-c3ccc(-c4cc[n+](C)cc4)cc3)sc2C)CCC1	< 1	2.2 µM	< 1	28.4 µM	< 1	< 1	25.2 µM	14 µM	37.1 µM		
CN(C)CCc1ccc(C2=CC3=C4CCCC4=C4C=C(c5ccc(CCN(C)C)cc5)S[C@]4(C)[C@@]3(C)S2)cc1	< 1	6.1 µM	< 1	13.4 µM	< 1	< 1	> 48.4 µM	31.1 µM	45.1 µM		
